One block for each compound: values may come before it.
Legend:
[1] = system: Microphthalmia Transcription Factor (MITF); assay: TRPM1-luciferase reporter screen for MITF antagonists in Skme15 melanoma cells; type: cell-based, human; conditions: for IC50: IC50 (described formally as qAC50), half-maximal suppression dose, unit inferred, text says potencies around 1 uM; for Conc. At Maximal Activity / Maximal Activity: dose titration; for Conc. At Maximal Activity: unit not given, in M (unit assumed); for Maximal Activity: maximal suppression of TRPM1-luciferase at any dose; for Z-Score: screen, suppression of TRPM1-luciferase activity, Skme15 cells
Excerpt: In order to carry out a successful MITF antagonist screen, the inventors utilized a TRPM1-luciferase reporter. […] Therefore, the TRPM1-luciferase reporter stably integrated into melanoma cells is effective for the screening assay. The use of melanoma cells, while less perfectly relevant than primary human melanocytes, afforded the advantages of speed and reproducibility for the screen.
In order to engineer a screen which broadly suppress MITF activity either by suppression of MITF expression or by inhibition of MITF activity, the inventors utilized a luciferase reporter containing the promoter of a strong direct transcriptional target of MITF, i.e., TRPM1 gene, the inventors have identified the active ingredients having the ability of inhibiting the expression or activation of Microphthalmia Transcription Factor (MITF) for medical or esthetic benefit. The inventors have previously identified the TRPM1 gene (also called “Melastatin”) as a direct target of MITF, which contains numerous MITF binding sites, and which directly responds in potent fashion to MITF overexpression (Miller A J, Du J, Rowan S, Hershey C L, Widlund H R, Fisher D E: Transcriptional regulation of the melanoma prognostic marker melastatin (TRPM1) by MITF in melanocytes and melanoma, Cancer Res 2004, 64:509-516). TRPM1 expression also correlates closely to MITF expression within human melanoma cell lines, as well as in clinical pigmented lesions (nevi and melanomas).
The TRPM1 promoter was ligated to the luciferase gene and inserted into a retroviral vector as well as a lentiviral vector. The lentiviral vector was used to infect primary human melanocytes, which then was subjected to a primary screen using the Broad Chemical Genetics core screening facility, and its natural products/extracts libraries. As backup, the retroviral vector was used to stably integrate into the genome of melanoma cells, which can be used for the identical small molecule screen. Screen optimization was carried out using forskolin and MSH as positive control small molecules (which upregulate cAMP and MITF expression (D'Orazio J A, Nobuhisa T, Cui R, Arya M, Spry M, Wakamatsu K, Igras V, Kunisada T, Granter S R, Nishimura E K, Ito S, Fisher D E: Topical drug rescue strategy and skin protection based on the role of Mc1r in UV-induced tanning, Nature 2006, 443:340-344)). Small molecules which suppress MSH induced TRPM1-luciferase without altering cell numbers or viability, represent initial “hits” in this screen. Negative control includes a constitutive luciferase vector within the same cells (eg driven by a constitutive promoter such as thymidine kinase promoter), to control for nonspecific inhibitors of basal transcriptional machinery-something which would otherwise be assessed in detail during secondary/tertiary analyses of candidate hits.
The human melanoma cell line Skme15 was utilized due to the advantageous growth properties as well as the inventors' prior experience that Skme15 expresses a typical level of MITF protein. […] Therefore, an integrated TRPM1-luciferase reporter was generated, and the subsequent cells were cloned twice (serially) to assure purity of the reporter cell population. Cells were maintained in drug selection to assure maintenance of the luciferase reporter (when drug was omitted, eventual loss of the luciferase signal was observed). Following re-cloning, distinct isolates were selected for further use on the basis of clonogenic growth on 384 well plates, as required for the small molecule screen. A positive control for suppression of TRPM1-luciferase signal utilized: a lentivirus encoding shRNA against MITF. […] The day-to-day variability in plating efficiency was analyzed, and found very high reproducibility in the line which was selected for further use in the screen.
The screen was carried out with a library from the Broad Institute comprising a mixture of natural products, known bioactives, and additional compounds (a total of about 13,000 compounds). […]

[2] = system: Skme15; assay: Toxicity with fluorescence viability probe (CellTiter-Fluo Cell Viability Assay); type: cell-based, human; conditions: composite of the variation between drug-treated and control divided by the standard error
Protocol: Although the shape of the dose-response can vary among hits, the inventors chose to include all candidates which produce dose-dependent effects. The fourth criterion which was determined is the IC50 (described formally as qAC50) which represents the half-maximal suppression dose. Most of the candidate hits resided in the high nanomolar to low micromolar range by this criterion (all of these validation data are listed in Table 1). The fifth criterion was maximal suppression (at any dose), which represented the magnitude of suppression which was attainable regardless of the dose required to achieve it. […] The sixth criterion to be determined is the Log P partition coefficient, which is a predictor of lipophilicity. For this, the inventors have used the method of Ghose and Crippen to calculate the predicted octanol-water partition coefficient (J. Comp. Chem. 9, 80(1988)). While this is only an estimate of potential skin penetration, the analysis was carried out because it helps in prioritizing likelihood of topical effectiveness, in theory. The seventh criterion was an analysis of toxicity utilizing a fluorescence viability probe (CellTiter-Fluo™ Cell Viability Assay (Promega)). Interpretation of this endpoint is complicated by the fact that it represents a composite of the variation between drug-treated and control divided by the standard error The results shown in Table 1 indicate 34 candidate molecules which satisfied all of the criteria outlined above. […] Most of their potencies ranged slightly below or above 1 uM. While the lipophilicity scores remain imperfect predictors of skin penetration capability. However, numbers of >3 can be more likely to penetrate.

IC50 [1]: 2.48 µM
Structure (SMILES): Cc1ccc(C23C[C@@H]4C[C@@H](CC(CN)(C4)C2)C3)cc1C [1-[(1S,3R,5R,7S)-3-(3,4-dimethylphenyl)adamantan-1-yl]methanamine]
Conc. At Maximal Activity [1]: 6.00E−06
Maximal Activity [1]: −149
Z-Score [1]: −10.8562
Viability z-score (treated minus control, divided by standard error) [2]: −1.015

Structure (SMILES): COc1ccc2c(c1)OC1COc3cc(OC)c(OC)cc3C1C2=O (stereo not shown) [2,3,9-trimethoxy-6a,12a-dihydrochromoeo[3,4-b]chromen-12(6H)-one]
IC50 [1]: 5.38 µM
Conc. At Maximal Activity [1]: 1.20E−05
Maximal Activity [1]: −320.4
Z-Score [1]: −9.245
Viability z-score (treated minus control, divided by standard error) [2]: −4.2731

Structure (SMILES): COc1ccc([N+](=O)[O-])cc1NC(=O)COc1ccc(C(C)(C)C)cc1Br [2-(2-bromo-4-tert-butylphenoxy)-N-(2-methoxy-5-nitrophenyl)acetamide]
Z-Score [1]: −12.0562
Viability z-score (treated minus control, divided by standard error) [2]: −1.6406

Structure (SMILES): Cc1oc2c(c1C(=O)N1CCC(C)CC1)C(=O)c1ccccc1C2=O [2-methyl-3-[(4-methylpiperidin-1-yl)carbonyl]naphtho[2,3-b]furan-4,9-dione]
Z-Score [1]: −9.924
Viability z-score (treated minus control, divided by standard error) [2]: 0.1575

Structure (SMILES): O=C(O)CCSc1nc2ccccc2s1 [3-(1,3-benzothiazol-2-ylthio)propanoic acid]
Z-Score [1]: −9.79
Viability z-score (treated minus control, divided by standard error) [2]: −1.5092

Structure (SMILES): O=C(O)c1cccc(COc2ccc(CO)cc2Cl)c1 [3-{[2-chloro-4-(hydroxymethyl)phenoxy]methyl}benzoic acid]
Z-Score [1]: −9.909
Viability z-score (treated minus control, divided by standard error) [2]: −1.5092

Structure (SMILES): COc1cc(CO)ccc1OCc1cccc(C(=O)O)c1 [3-{[4-(hydroxymethyl)-2-methoxyphenoxy]methyl}benzoic acid]
Z-Score [1]: −10.9296
Viability z-score (treated minus control, divided by standard error) [2]: −1.6406

Structure (SMILES): Cc1ccc(OCC(=O)Nc2cccc(C(=O)O)c2)c(Br)c1 [3-{[(2-bromo-4-methylphenoxy)acetyl]amino}benzoic acid]
Z-Score [1]: −10.0837
Viability z-score (treated minus control, divided by standard error) [2]: −1.5092

Structure (SMILES): CCOc1ccc(OCC(=O)Nc2cccc(C(=O)O)c2)cc1 [3-{[(4-ethoxyphenoxy)acetyl]amino}benzoic acid]
Z-Score [1]: −9.9
Viability z-score (treated minus control, divided by standard error) [2]: −1.5092

Structure (SMILES): COc1cc(C(=O)Nc2cc(-c3nc4ncccc4o3)ccc2C)ccc1OCc1ccc(Cl)cc1 [4-[(4-chlorobenzyl)oxy]-3-methoxy-N-(2-methyl-5-[1,3]oxazolo[4,5-b]pyridin-2-ylphenyl)benzamide]
Z-Score [1]: −9.256

Structure (SMILES): Clc1ccc(C2=NN=C(N3CCCC3)SC2)cc1 [5-(4-chlorophenyl)-2-pyrrolidin-1-yl-6H-1,3,4-thiadiazine]
Z-Score [1]: −9.961
Viability z-score (treated minus control, divided by standard error) [2]: −0.2442

Structure (SMILES): CC(C)(C)c1ccc(C(=O)N2CCN(c3ccc([N+](=O)[O-])c(NCc4cccnc4)c3)CC2)cc1 [5-[4-(4-tert-butylbenzoyl)piperazin-1-yl]-2-nitro-N-(pyridin-3-ylmethyl)aniline]
Z-Score [1]: −9.588
Viability z-score (treated minus control, divided by standard error) [2]: −0.8893

Structure (SMILES): Cc1ccc(C)c(C(Nc2ccccn2)c2cc(Cl)c3cccnc3c2O)c1 (stereo not shown) [5-chloro-7-[(2,5-dimethylphenyl)(pyridin-2-ylamino)methyl]quinolin-8-ol]
Z-Score [1]: −8.461
Viability z-score (treated minus control, divided by standard error) [2]: −0.8893

Structure (SMILES): Oc1c(C(Nc2ccccn2)c2c(F)cccc2Cl)cc(Cl)c2cccnc12 (stereo not shown) [5-chloro-7-[(2-chloro-6-fluorophenyl)(pyridin-2-ylamino)methyl]quinolin-8-ol]
Z-Score [1]: −9.327
Viability z-score (treated minus control, divided by standard error) [2]: −2.226

Structure (SMILES): c1ccc(-c2cnc3nonc3n2)cc1 [5-phenyl[1,2,5]oxadiazolo[3,4-b]pyrazine]
Z-Score [1]: −9.989
Viability z-score (treated minus control, divided by standard error) [2]: −0.0206

Structure (SMILES): O=c1[nH]c(=O)n(Cc2ccco2)c2c1C(C(F)(F)F)(C(F)(F)F)N=C(c1ccc(F)cc1)N2 [7-(4-fluorophenyl)-1-(2-furylmethyl)-5,5-bis(trifluoromethyl)-5,8-dihydropyrimido[4,5-d]pyrimidine-2,4(1H,3H)-dione]
Z-Score [1]: −8.791
Viability z-score (treated minus control, divided by standard error) [2]: −2.0352

IC50 [1]: 5.69 µM
Structure (SMILES): CC(C)(C)[C@H]1CC[C@@]2(CC1)[C@@H](C#N)[C@]2(C#N)C(=O)c1ccccc1 [(1S,2R,3S,6S)-1-benzoyl-6-tert-butylspiro[2.5]octane-1,2-dicarbonitrile]
Conc. At Maximal Activity [1]: 1.95E−05
Maximal Activity [1]: −274.1
Z-Score [1]: −11.0899
Viability z-score (treated minus control, divided by standard error) [2]: 0.4824

Structure (SMILES): CCOC(=O)c1c(C)n(Cc2ccccc2)c2ccc(OCC(O)CNC(C)(C)C)cc12 (stereo not shown) [Ethyl-1-benzyl-5-[3-(tert-butylamino)-2-hydroxypropoxy]-2-methyl-1H-indole-3-carboxylate]
Z-Score [1]: −7.844
Viability z-score (treated minus control, divided by standard error) [2]: −2.519

Structure (SMILES): CCOC(=O)COc1cccc(-c2nc3ccccc3s2)c1 [Ethyl-[3-(1,3-benzothiazol-2-yl)phenoxy]acetate]
Z-Score [1]: −9.663
Viability z-score (treated minus control, divided by standard error) [2]: −0.0206

Structure (SMILES): Cc1cccc(-c2nnc(SCC(=O)Nc3ccccc3F)o2)c1 [N-(2-fluorophenyl)-2-{[5-(3-methylphenyl)-1,3,4-oxadiazol-2-yl]thio}acetamide]
Z-Score [1]: −10.7661
Viability z-score (treated minus control, divided by standard error) [2]: −0.0206

Structure (SMILES): O=C(NCCCc1ccccc1)N1c2ccccc2Sc2ccccc21 [N-(3-phenylpropyl)-10H-phenothiazine-10-carboxamide]
Z-Score [1]: −9.495
Viability z-score (treated minus control, divided by standard error) [2]: −4.128

Structure (SMILES): O=C(CSc1nc2cc([N+](=O)[O-])ccc2[nH]1)Nc1cc(C(F)(F)F)cc(C(F)(F)F)c1 [N-[3,5-bis(trifluoromethyl)phenyl]-2-[(5-nitro-1H-benzimidazol-2-yl)thio]acetamide]
Z-Score [1]: −10.0284

Structure (SMILES): Cc1ccc2nc(-c3ccc(NC(=O)CSc4nnc(C)s4)cc3)sc2c1 [N-[4-(6-methyl-1,3-benzothiazol-2-yl)phenyl]-2-[(5-methyl-1,3,4-thiadiazol-2-yl)thio]acetamide]
Z-Score [1]: −9.3543
Viability z-score (treated minus control, divided by standard error) [2]: 1.032

Structure (SMILES): COc1ccc(OC)c(S(=O)(=O)N2CCC(C(=O)Nc3ccc(Cl)c(C(F)(F)F)c3)CC2)c1 [N-[4-chloro-3-(trifluoromethyl)phenyl]-1-[(2,5-dimethoxyphenyl)sulfonyl]piperidine-4-carboxamide]
Z-Score [1]: −9.871
Viability z-score (treated minus control, divided by standard error) [2]: −0.2442

Reference: US20140296223A1, “METHOD FOR REGULATING SKIN PIGMENTATION” (THE GENERAL HOSPITAL CORPORATION, priority 2011, published 2014)
